Reference: patent US20250346613A1, “BORIC ACID PROTEASOME INHIBITOR AND USE THEREOF” (ARTIVILA BIOPHARMA, priority 2022, published 2025)

Columns and labels:
Type in all cases: cell-based
[1] = biological target: T1, β5c subunit of the 20S proteasome (Homo sapiens, UniProt P20618+P28074); test: Proteasome inhibitory activity, β5c subunit (Raji cells treated with compound, lysed, Suc-LLVY-AMC substrate); conditions: proteasome from Raji cells incubated with compound 4 h
T1 construct: The proteasome tested in the present disclosure was derived from Raji cells; endogenous in cells; host or cells: Raji cells
Description: (§1) In the present disclosure, the fluorescent peptide substrate Ac-Ala-Asn-Trp-AMC (abbreviated as Ac-ANW-AMC) and the […] kit containing a fluorescent peptide substrate Suc-Leu-Leu-Val-Tyr-AMC (abbreviated as Suc-LLVY-AMC) (Promega, Item No. G8660) were used to detect the activities of the β5i subunit and β5c subunit of the 20S proteasome, respectively.
(§2) The proteasome tested in the present disclosure was derived from Raji cells, the fluorescent substrate Ac-ANW-AMC was purchased from Roche company, and other reagents were purchased from Sigma company. The experimental system was divided into two parts of cell lysis system and enzyme reaction system. […] The starting concentration of the compound (inhibitor) was 1 μM. It was diluted in a 3-fold serial dilution to a total of 8 concentrations, that is, the administration concentration can be 1 μM, 0.333 μM, 0.111 μM . . . , respectively, and the specific experimental process was described below.
(§3) Raji cells (1×10^6 cells) cryopreserved in liquid nitrogen were thawed rapidly in a water bath at 37° C. The cell pellet was transferred to a 15 mL centrifuge tube, added with 9 mL of fresh medium (Gibco RPMI1640 added with 10% fetal bovine serum and 1% double antibiotics), centrifuged at 120 g for 5 min, inoculated to 25 mL cell culture flasks, and passaged once every 2-3 days.
(§4) The compound was weighed and dissolved in DMSO to a concentration of 10 mM. The compound was then sequentially diluted to concentrations of 200 μM, 66.67 μM, 22.22 μM, 7.41 μM, 2.47 μM, 0.82 μM, 0.27 μM, and 0.091 μM with fresh medium. Raji cells in a good growth status were inoculated into a 48-well cell culture plate at 7×10^5 cells/mL.
(§5) Raji cells in a good growth status were taken and counted. They were then inoculated to a 48-well cell culture plate at 7×10^5 cells/mL. Each 5 μL of the various concentrations of diluted compounds above were taken and added to the culture plate inoculated with cells, and the lowest concentration of compound was 0 μM. The drug bortezomib (Velcade) and ONX-0914 were used as the positive control compounds. All cells were incubated at 37° C. for 4 h.
(§6) The compound-treated cells were sequentially transferred into 1.5 mL centrifuge tubes, centrifuged at 10000 rpm for 2 min, and the supernatants were removed. The cell pellet was resuspended in 1 mL of PBS, centrifuged at 10000 rpm for 2 min, and the supernatant was removed. Cells were resuspended by adding 100 μL of cell lysate (50 mM Tris of pH 7.5, 150 mM NaCl, 5 mM MgCl2, 5 mM ATP, 1 mM DTT, 0.01% NP-40, 1 mM Digitonin, and Cocktail), placed in an ice bath for 30 min, and centrifuged at 13000 rpm for 10 min.
(§7) 2 mg of fluorescent peptide substrate AC-ANW-AMC was dissolved in 424.7 μL of DMSO to obtain an 8 mM stock solution, and stored at −20° C. The stock solution was diluted 100-fold to a final concentration of […] for use in the reaction system. The fluorescent peptide substrate Suc-LLVY-AMC was prepared according to the instructions of the Promega kit.
(§8) Each 20 μL of the prepared proteasome solution above was added to a 96-well white luciferase microplate and added with 25 μL of AC-ANW-AM substrate buffer solution (50 mM Tris of pH 7.5, 150 mM NaCl, 5 mM MgCl2, 5 mM ATP, 80 uM Ac-ANW-AMC and 1 mM DTT) and 25 μL of Suc-LLVY-AMC substrate buffer solution for 10 min of reaction at 37° C. in the dark. Fluorescence values were read at 345 nm/445 nm by using a fluorence microplate reader.
(§9) The data were exported and the inhibition rate in percentage was calculated according to the following formula: Inhibition rate=(maximum signal value-compound signal value)/(maximum signal value−blank signal value)×100%.
(§10) Where the maximum signal was obtained from cell lysates treated with DMSO only, and the blank signal was obtained from wells containing only lysates.

[2] = biological target: T2, β5i subunit of the 20S proteasome (Homo sapiens, UniProt P20618+P28062); test: Proteasome inhibitory activity, β5i subunit (Raji cells treated with compound, lysed, Ac-ANW-AMC substrate); conditions: proteasome from Raji cells incubated with compound 4 h
T2 construct: The proteasome tested in the present disclosure was derived from Raji cells; endogenous in cells; host or cells: Raji cells
Description: as §1, §2, §3, §4, §5, §6, §7, §8, §9, §10

MM.1S cell strain = test: Inhibitory activity of cell strain (CellTiter-Glo); conditions: Homo sapiens, MM1.S, 72 h incubation
Method: The cells used in this experiment were MM.1S cell strain and the detection reagent was CellTiter-Glo (Promega). […] The experimental process was described below. MM.1S cells in the logarithmic growth phase and in a good status were digested into individual cells by trypsin, centrifuged to remove the supernatant, and counted. Cells were diluted and 100 μL of cell suspension per well was added to a 96-well enzyme-coated plate at 1×10^5 cells per well. The wells containing only RPMI1640 complete medium were set as blank control. The 96-well plate was transferred to a 37° C. incubator containing 5% CO2 for 24 h of incubation.
The compound was accurately weighed and dissolved in DMSO to a concentration of 10^−2 M. 10 μL of compound was pipetted to 190 μL of DMSO to given a 5×10^−4 M compound. 6 μL of the compound (5×10^−5 M) was pipetted to a new 96-well microplate containing 194 μL of RPMI1640 complete medium and diluted in a 3-fold gradient dilution. 50 μL of the diluted compound was transferred to the 96-well microplate containing the cells such that the final compound concentrations were 5×10^−7 M, 1.67×10^−7 M, 5.55×10^−8 M, 1.85×10^−8 M, 6.17×10^−9 M, 2.06×10^−9 M, 6.86×10^−10 M, 2.29×10^−10 M, and 0 M. For the 0 M, no compound was added, and the same concentration of DMSO was added. The marketed drug bortezomib was used as a positive control. The 96-well microplate added with compounds was placed in the 37° C. incubator for 72 h of incubation.
At the predetermined detection time, the 96-well microplate to be detected was placed at room temperature, added with 40 μL of detection reagent (CellTiter-Glo) per well, and covered with a dark lid or piece of aluminium foil. The contents were mixed on an orbit oscillator for 10 min for complete cell lysis, with a vibration speed of 150 rpm. Luminescence values were detected on a multifunctional microplate reader (BioTek Synergy H1 Hybrid Multi-Mode Reade).
The data were exported and the percentage inhibition was calculated according to the following formula: Inhibition rate=(maximum signal value-compound signal value)/(maximum signal value−blank signal value)×100%, • wherein maximum signal was obtained from alone DMSO-treated cells, and blank signal was obtained from wells containing only culture medium.

SMILES | IC50 [1] [nM] | IC50 [2] [nM] | IC50 (MM.1S cell strain) [nM]
O=C(CCC(=O)N[C@@H](Cc1ccccc1)B(O)O)NCc1ccccc1 [Example 16, (R)-(1-(4-(benzylamino)-4-oxobutanoylamino)-2-phenylethyl)boric acid] | 50 to 200 | ≤ 50 | 200 to 500
CC(C(=O)NCc1cccc(-c2ccccc2)n1)C(=O)N[C@@H](Cc1ccc(-c2ccccc2)cc1)B(O)O (stereo partly drawn) [Example 58] | ≤ 50 | ≤ 50 | 50 to 200
Cc1ccc(C[C@H](NC(=O)CC(=O)NCc2cccc(-c3ccccc3)c2)B(O)O)cc1 [Example 27, (R)-(1-(3-(([1,1′-biphenyl]-3-ylmethyl)amino)-3-oxopropionamido)-2-(p-tolyl)ethyl)boric acid] | ≤ 50 | ≤ 50 | ≤ 50
CC(C(=O)NCc1ccccc1)C(=O)N[C@@H](Cc1ccccc1)B(O)O (stereo partly drawn) [Example 29, ((1R)-1-(3-(benzylamino)-2-methyl-3-oxopropionamido)-2-phenylethyl)boric acid] | ≤ 50 | ≤ 50 | 50 to 200
COc1cccc(CNC(=O)C(C)C(=O)N[C@@H](Cc2coc3ccccc23)B(O)O)c1 (stereo partly drawn) [Example 9] | ≤ 50 | ≤ 50 | ≤ 50
COc1cccc(CNC(=O)CC(=O)N[C@@H](Cc2ccc(C)cc2)B(O)O)c1 [Example 50, (R)-(1-(3-((3-methoxybenzyl)amino)-3-oxopropionylamino)-2-(p-tolyl)ethyl)boric acid] | ≤ 50 | ≤ 50 | ≤ 50
O=C(CC(=O)N[C@@H](Cc1ccccc1)B(O)O)NCc1cccc(-c2ccccc2)c1 [Example 44, (R)-(1-(3-(([1,1′-biphenyl]-3-ylmethyl)amino)-3-oxopropionamido)-2-phenylethyl)boronic acid] | ≤ 50 | ≤ 50 | ≤ 50
COc1cccc(CCNC(=O)C(C)C(=O)N[C@@H](Cc2ccc(-c3ccccc3)cc2)B(O)O)c1 (stereo partly drawn) [Example 64, ((1R)-2-([1,1′-biphenyl]-4-yl)-1-(3-((3-methoxyphenylethyl)amino)-2-methyl-3-oxopropionamido)ethyl)boric acid] | ≤ 50 | ≤ 50 | ≤ 50
O=C(/C=C/C(=O)N[C@@H](Cc1ccccc1)B(O)O)NCc1cccc(-c2ccccc2)n1 [Example 14, (R,E)-(1-(4-oxo-4-(((6-phenylpyridin-2-yl)methyl)amino)but-2-enamido)-2-phenylethyl)boric acid] | 50 to 200 | 50 to 200 | 50 to 200
COc1cccc(CNC(=O)C(CC2CC2)C(=O)N[C@@H](Cc2ccc(C)cc2)B(O)O)c1 (stereo partly drawn) [Example 80, ((1R)-1-(2-(cyclopropylmethyl)-3-((3-methoxybenzyl)amino)-3-oxopropionamido)-2-(p-tolyl)ethyl)boric acid] | ≤ 50 | ≤ 50 | ≤ 50

Further lines, results first:

IC50 [1] [nM] | IC50 [2] [nM] | IC50 (MM.1S cell strain) [nM] | SMILES
≤ 50 | ≤ 50 | 50 to 200 | Cc1ccc(C[C@H](NC(=O)C(C)(F)C(=O)NCc2cccc(-c3ccccc3)n2)B(O)O)cc1 (stereo partly drawn) [Example 56, ((1R)-1-(2-fluoro-2-methyl-3-oxo-3-(((6-phenylpyridin-2-yl)methyl)amino)propionylamino)-2-(p-tolyl)ethyl)boric acid]
≤ 50 | ≤ 50 | ≤ 50 | COc1cccc(CNC(=O)C(C(=O)N[C@@H](Cc2coc3ccccc23)B(O)O)C(C)C)c1 (stereo partly drawn) [Example 75, ((1R)-2-(benzofuran-3-yl)-1-(2-((3-methoxybenzyl)carbamoyl)-3-methylbutanamido)ethyl)boric acid]
≤ 50 | ≤ 50 | ≤ 50 | Cc1ccc(C[C@H](NC(=O)C(C)C(=O)NCc2cccc(-c3ccccc3)n2)B(O)O)cc1 (stereo partly drawn) [Example 45, ((1R)-1-(2-methyl-3-oxo-3-(((6-phenylpyridin-2-yl)methyl)amino)propionamide)-2-(p-tolyl)ethyl)boric acid]
≤ 50 | ≤ 50 | ≤ 50 | CC(C(=O)NCc1cccc(C(F)(F)F)c1)C(=O)N[C@@H](Cc1coc2ccccc12)B(O)O (stereo partly drawn) [Example 77, ((1R)-2-(benzofuran-3-yl)-1-(2-methyl-3-oxo-3-((3-(trifluoromethyl)benzyl)amino)propionamido)ethyl)boric acid]
≤ 50 | ≤ 50 | ≤ 50 | CC(C(=O)NCc1cccc(OC(F)(F)F)c1)C(=O)N[C@@H](Cc1coc2ccccc12)B(O)O (stereo partly drawn) [Example 73, ((1R)-2-(benzofuran-3-yl)-1-(2-methyl-3-oxo-3-((3-(trifluoromethoxy)benzyl)amino)propionamido)ethyl)boric acid]
≤ 50 | ≤ 50 | ≤ 50 | COc1cccc(CNC(=O)C(C(=O)N[C@@H](Cc2ccc(C)cc2)B(O)O)C(C)C)c1 (stereo partly drawn) [Example 87, ((1R)-1-(2-((3-methoxybenzyl)carbamoyl)-3-methylbutanamido)-2-(p-tolyl)ethyl)boric acid]
≤ 50 | ≤ 50 | ≤ 50 | COc1cccc(CNC(=O)CC(=O)N[C@@H](Cc2ccccc2)B(O)O)c1 [Example 49, (R)-(1-(3-((3-methoxybenzyl)amino)-3-oxopropionylamino)-2-phenylethyl)boric acid]
≤ 50 | ≤ 50 | ≤ 50 | COc1cccc(CNC(=O)CC(=O)N[C@@H](CC(C)C)B(O)O)c1 [Example 48, (R)-(1-(3-((3-methoxybenzyl)amino)-3-oxopropionamido)-3-methylbutyl)boric acid]
